From patent US10765114B2, “4-amino-6-(pyridyl and 2-substitutedphenyl)-picolinates and 6-amino-2-(pyridyl and 2-substitutedphenyl)-pyrimidine-4-carboxylates and their use as herbicides” (Dow AgroSciences LLC, priority 2013, dated 2020)

test system: Key Broadleaf Weed and Crop Species; test: Post-Emergent Test II (Table 5); type: in vivo; conditions: Abutilon theophrasti, post-emergence, 336 h, ABUTH: velvetleaf (Abutilon theophrasti), application rate 70 (kg ai/ha; footnote: g ai/ha), read-out: Visual Growth Reduction (%) 14 Days After Application ABUTH
Method in brief: (§1)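 Visual injury ratings (0 = no injury, 100 = complete kill) taken 14 days after treatment, relative to untreated controls. Compounds, in an acetone/DMSO aqueous carrier with crop oil and surfactant, were applied by track sprayer at 187 L/ha, in a twofold dilution series from the top rate, to plants at the first to second true-leaf stage.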

Question: For Cc1c(-c2nc(C(=O)O)c(Cl)c(N)c2F)ccc(C(F)(F)F)c1F [Compound 55], which pest or weed control at 70 g/ha is on record?
Answer: 45 to 59%

same assay, conditions: Abutilon theophrasti, post-emergence, 336 h, ABUTH: velvetleaf (Abutilon theophrasti), application rate 140 (kg ai/ha; footnote: g ai/ha), read-out: Visual Growth Reduction (%) 14 Days After Application ABUTH

Question: Which pest or weed control at 140 g/ha does the source give for Cc1c(-c2nc(C(=O)O)c(Cl)c(N)c2F)ccc(C(F)(F)F)c1F [Compound 55] here?
Answer: 45 to 59%

same assay, conditions: Amaranthus retroflexus, post-emergence, 336 h, AMARE: redroot pigweed (Amaranthus retroflexus), application rate 70 (kg ai/ha; footnote: g ai/ha), read-out: Visual Growth Reduction (%) 14 Days After Application AMARE

Question: With Cc1c(-c2nc(C(=O)O)c(Cl)c(N)c2F)ccc(C(F)(F)F)c1F [Compound 55] as the molecule, how does the pest or weed control at 70 g/ha read?
Answer: 0 to 29%

same assay, conditions: Amaranthus retroflexus, post-emergence, 336 h, AMARE: redroot pigweed (Amaranthus retroflexus), application rate 140 (kg ai/ha; footnote: g ai/ha), read-out: Visual Growth Reduction (%) 14 Days After Application AMARE

Question: With Cc1c(-c2nc(C(=O)O)c(Cl)c(N)c2F)ccc(C(F)(F)F)c1F [Compound 55] as the molecule, how does the pest or weed control at 140 g/ha read?
Answer: 0 to 29%

same assay, conditions: Brassica napus, post-emergence, 336 h, BRSSS: oilseed rape, canola (Brassica napus), application rate 70 (kg ai/ha; footnote: g ai/ha), read-out: Visual Growth Reduction (%) 14 Days After Application BRSSS

Question: With Cc1c(-c2nc(C(=O)O)c(Cl)c(N)c2F)ccc(C(F)(F)F)c1F [Compound 55] as the molecule, how does the pest or weed control at 70 g/ha read?
Answer: 30 to 44%

same assay, conditions: Brassica napus, post-emergence, 336 h, BRSSS: oilseed rape, canola (Brassica napus), application rate 140 (kg ai/ha; footnote: g ai/ha), read-out: Visual Growth Reduction (%) 14 Days After Application BRSSS

Question: With Cc1c(-c2nc(C(=O)O)c(Cl)c(N)c2F)ccc(C(F)(F)F)c1F [Compound 55] as the molecule, how does the pest or weed control at 140 g/ha read?
Answer: 45 to 59%

same assay, conditions: Chenopodium album, post-emergence, 336 h, CHEAL: lambsquarters (Chenopodium album), application rate 70 (kg ai/ha; footnote: g ai/ha), read-out: Visual Growth Reduction (%) 14 Days After Application CHEAL

Question: With Cc1c(-c2nc(C(=O)O)c(Cl)c(N)c2F)ccc(C(F)(F)F)c1F [Compound 55] as the molecule, how does the pest or weed control at 70 g/ha read?
Answer: 60 to 74%

same assay, conditions: Chenopodium album, post-emergence, 336 h, CHEAL: lambsquarters (Chenopodium album), application rate 140 (kg ai/ha; footnote: g ai/ha), read-out: Visual Growth Reduction (%) 14 Days After Application CHEAL

Question: With Cc1c(-c2nc(C(=O)O)c(Cl)c(N)c2F)ccc(C(F)(F)F)c1F [Compound 55] as the molecule, how does the pest or weed control at 140 g/ha read?
Answer: 85 to 94%

same assay, conditions: Euphorbia heterophylla, post-emergence, 336 h, EPHHL: wild poinsettia (Euphorbia heterophylla), application rate 70 (kg ai/ha; footnote: g ai/ha), read-out: Visual Growth Reduction (%) 14 Days After Application EPHHL

Question: How did the pest or weed control at 70 g/ha turn out when Cc1c(-c2nc(C(=O)O)c(Cl)c(N)c2F)ccc(C(F)(F)F)c1F [Compound 55] was run?
Answer: 0 to 29%

same assay, conditions: Euphorbia heterophylla, post-emergence, 336 h, EPHHL: wild poinsettia (Euphorbia heterophylla), application rate 140 (kg ai/ha; footnote: g ai/ha), read-out: Visual Growth Reduction (%) 14 Days After Application EPHHL

Question: How did the pest or weed control at 140 g/ha turn out when Cc1c(-c2nc(C(=O)O)c(Cl)c(N)c2F)ccc(C(F)(F)F)c1F [Compound 55] was run?
Answer: 45 to 59%

same assay, conditions: Helianthus annuus, post-emergence, 336 h, HELAN: sunflower (Helianthus annuus), application rate 70 (kg ai/ha; footnote: g ai/ha), read-out: Visual Growth Reduction (%) 14 Days After Application HELAN

Question: For Cc1c(-c2nc(C(=O)O)c(Cl)c(N)c2F)ccc(C(F)(F)F)c1F [Compound 55], which pest or weed control at 70 g/ha is on record?
Answer: 85 to 94%

same assay, conditions: Helianthus annuus, post-emergence, 336 h, HELAN: sunflower (Helianthus annuus), application rate 140 (kg ai/ha; footnote: g ai/ha), read-out: Visual Growth Reduction (%) 14 Days After Application HELAN

Question: Cc1c(-c2nc(C(=O)O)c(Cl)c(N)c2F)ccc(C(F)(F)F)c1F [Compound 55] was tested. Which pest or weed control at 140 g/ha did it give?
Answer: 95 to 100%

same assay, conditions: Viola tricolor, post-emergence, 336 h, VIOTR: wild pansy (Viola tricolor), application rate 70 (kg ai/ha; footnote: g ai/ha), read-out: Visual Growth Reduction (%) 14 Days After Application VIOTR

Question: Cc1c(-c2nc(C(=O)O)c(Cl)c(N)c2F)ccc(C(F)(F)F)c1F [Compound 55] was tested. Which pest or weed control at 70 g/ha did it give?
Answer: 0 to 29%

same assay, conditions: Viola tricolor, post-emergence, 336 h, VIOTR: wild pansy (Viola tricolor), application rate 140 (kg ai/ha; footnote: g ai/ha), read-out: Visual Growth Reduction (%) 14 Days After Application VIOTR

Question: For Cc1c(-c2nc(C(=O)O)c(Cl)c(N)c2F)ccc(C(F)(F)F)c1F [Compound 55], which pest or weed control at 140 g/ha is on record?
Answer: 0 to 29%

test system: Key Grass and Sedge Weeds as well as Grass Crops; test: Post-Emergent Test II (Table 6); type: in vivo; conditions: post-emergence, 336 h, CYPSS, 70 g ai/ha, 14 days after application, read-out: Visual Growth Reduction (%) 14 Days After Application CYPSS
Method in brief: as §1

Question: For Cc1c(-c2nc(C(=O)O)c(Cl)c(N)c2F)ccc(C(F)(F)F)c1F [Compound 55], which pest or weed control at 70 g/ha is on record?
Answer: 0 to 29%

same assay, conditions: post-emergence, 336 h, CYPSS, 140 g ai/ha, 14 days after application, read-out: Visual Growth Reduction (%) 14 Days After Application CYPSS

Question: For Cc1c(-c2nc(C(=O)O)c(Cl)c(N)c2F)ccc(C(F)(F)F)c1F [Compound 55], which pest or weed control at 140 g/ha is on record?
Answer: 0 to 29%

same assay, conditions: post-emergence, 336 h, DIGSA: crabgrass (Digitaria sanguinalis), 70 g ai/ha, 14 days after application, read-out: Visual Growth Reduction (%) 14 Days After Application DIGSA

Question: How did the pest or weed control at 70 g/ha turn out when Cc1c(-c2nc(C(=O)O)c(Cl)c(N)c2F)ccc(C(F)(F)F)c1F [Compound 55] was run?
Answer: 0 to 29%

same assay, conditions: post-emergence, 336 h, DIGSA: crabgrass (Digitaria sanguinalis), 140 g ai/ha, 14 days after application, read-out: Visual Growth Reduction (%) 14 Days After Application DIGSA

Question: Cc1c(-c2nc(C(=O)O)c(Cl)c(N)c2F)ccc(C(F)(F)F)c1F [Compound 55] was tested. Which pest or weed control at 140 g/ha did it give?
Answer: 0 to 29%

same assay, conditions: post-emergence, 336 h, ECHSS, 70 g ai/ha, 14 days after application, read-out: Visual Growth Reduction (%) 14 Days After Application ECHSS

Question: Cc1c(-c2nc(C(=O)O)c(Cl)c(N)c2F)ccc(C(F)(F)F)c1F [Compound 55] was tested. Which pest or weed control at 70 g/ha did it give?
Answer: 0 to 29%

same assay, conditions: post-emergence, 336 h, ECHSS, 140 g ai/ha, 14 days after application, read-out: Visual Growth Reduction (%) 14 Days After Application ECHSS

Question: For Cc1c(-c2nc(C(=O)O)c(Cl)c(N)c2F)ccc(C(F)(F)F)c1F [Compound 55], which pest or weed control at 140 g/ha is on record?
Answer: 0 to 29%

same assay, conditions: post-emergence, 336 h, ORYSS (crop), 70 g ai/ha, 14 days after application, read-out: Visual Growth Reduction (%) 14 Days After Application ORYSS

Question: Cc1c(-c2nc(C(=O)O)c(Cl)c(N)c2F)ccc(C(F)(F)F)c1F [Compound 55] was tested. Which pest or weed control at 70 g/ha did it give?
Answer: 0 to 29%

same assay, conditions: post-emergence, 336 h, ORYSS (crop), 140 g ai/ha, 14 days after application, read-out: Visual Growth Reduction (%) 14 Days After Application ORYSS

Question: For Cc1c(-c2nc(C(=O)O)c(Cl)c(N)c2F)ccc(C(F)(F)F)c1F [Compound 55], which pest or weed control at 140 g/ha is on record?
Answer: 0 to 29%

same assay, conditions: post-emergence, 336 h, SORVU: grain sorghum (Sorghum vulgare), 70 g ai/ha, 14 days after application, read-out: Visual Growth Reduction (%) 14 Days After Application SORVU

Question: Which pest or weed control at 70 g/ha does the source give for Cc1c(-c2nc(C(=O)O)c(Cl)c(N)c2F)ccc(C(F)(F)F)c1F [Compound 55] here?
Answer: 0 to 29%

same assay, conditions: post-emergence, 336 h, SORVU: grain sorghum (Sorghum vulgare), 140 g ai/ha, 14 days after application, read-out: Visual Growth Reduction (%) 14 Days After Application SORVU

Question: For Cc1c(-c2nc(C(=O)O)c(Cl)c(N)c2F)ccc(C(F)(F)F)c1F [Compound 55], which pest or weed control at 140 g/ha is on record?
Answer: 0 to 29%

same assay, conditions: post-emergence, 336 h, TRZSS (crop), 70 g ai/ha, 14 days after application, read-out: Visual Growth Reduction (%) 14 Days After Application TRZSS

Question: With Cc1c(-c2nc(C(=O)O)c(Cl)c(N)c2F)ccc(C(F)(F)F)c1F [Compound 55] as the molecule, how does the pest or weed control at 70 g/ha read?
Answer: 0 to 29%

same assay, conditions: post-emergence, 336 h, TRZSS (crop), 140 g ai/ha, 14 days after application, read-out: Visual Growth Reduction (%) 14 Days After Application TRZSS

Question: For Cc1c(-c2nc(C(=O)O)c(Cl)c(N)c2F)ccc(C(F)(F)F)c1F [Compound 55], which pest or weed control at 140 g/ha is on record?
Answer: 0 to 29%

same assay, conditions: post-emergence, 336 h, ZEAMX: maize, corn (Zea mays), 70 g ai/ha, 14 days after application, read-out: Visual Growth Reduction (%) 14 Days After Application ZEAMX

Question: Cc1c(-c2nc(C(=O)O)c(Cl)c(N)c2F)ccc(C(F)(F)F)c1F [Compound 55] was tested. Which pest or weed control at 70 g/ha did it give?
Answer: 45 to 59%

same assay, conditions: post-emergence, 336 h, ZEAMX: maize, corn (Zea mays), 140 g ai/ha, 14 days after application, read-out: Visual Growth Reduction (%) 14 Days After Application ZEAMX

Question: With Cc1c(-c2nc(C(=O)O)c(Cl)c(N)c2F)ccc(C(F)(F)F)c1F [Compound 55] as the molecule, how does the pest or weed control at 140 g/ha read?
Answer: 45 to 59%
